Common to all, as to assay: microbe, parasite or virus in culture
Holding throughout (assay type): cell-based, Klebsiella pneumoniae

One experiment concerns K. pneumoniae IMT40061. How it is done: (§1) Three different strains of K. pneumoniae were investigated in this study which were originally isolated from a human, a pig and a dog (Table 2) and characterized in previous studies ([Krieger et al., 2021]; [Krieger et al., 2022]). Minimum inhibitory concentration (MIC) values were determined according to EUCAST guidelines by microdilution test and are shown in Supplementary Table S1.
(§2) Table S1 Minimum inhibitory concentration (MIC) values of the three K. pneumoniae strains,
(§3) determined according to EUCAST guidelines by microdilution test.
(§4) MIC [µg/mL] of indicated antibiotics

For another experiment, the system named is K. pneumoniae 17349. As for the experimental part: as §1, §2, §3, §4
Experiment [1] relates to K. pneumoniae 42KC-108224-1. How it is done:
as §1, §2, §3, §4

[2] abbreviates: Klebsiella pneumoniae, IMT40061, EUCAST guidelines, microdilution test, read-out: MIC.
[3] abbreviates: Klebsiella pneumoniae, 17349, EUCAST guidelines, microdilution test, read-out: MIC.
Setting [4] is: Klebsiella pneumoniae, 42KC1082241, EUCAST guidelines, microdilution test, read-out: MIC.
[5] abbreviates: Klebsiella pneumoniae, 42KC1082241.
[6] abbreviates: EUCAST guidelines, microdilution test.

Converted amounts (≈) assume the structure as drawn. Read-outs that look alike come from different tables or passages of the source. Bridge positions count the residues as written; N and C are the ends. Square brackets hold non-standard residues; d marks the D form. Peptide text beside a SMILES is read from it. * marks the point of attachment. X1 = CC[C@H](C)CCCCC(=O)*; Dab = NCC[C@H](N)C(=O)O

As to `NCC[C@H](O)C(=O)N[C@@H]1C[C@H](N)[C@@H](O[C@H]2O[C@H](CN)[C@@H](O)[C@H](O)[C@H]2O)[C@H](O)[C@H]1O[C@H]1O[C@H](CO)[C@@H](O)[C@H](N)[C@H]1O` [Amikacin], the MIC with K. pneumoniae IMT40061 (setting [2]) is 4 µg/mL (≈ 6.83 µM); in the experiment on K. pneumoniae 17349 (setting [3]), below 0.5 µg/mL; in experiment [1] (setting [4]), below 0.5 µg/mL.

As to `CC1(C)S[C@@H]2[C@H](NC(=O)[C@H](N)c3ccccc3)C(=O)N2[C@H]1C(=O)O` [Ampicillin], the MIC is above 32 µg/mL with K. pneumoniae IMT40061 (setting [2]), 16 µg/mL (≈ 45.8 µM) with K. pneumoniae 17349 (setting [3]) and above 32 µg/mL in experiment [1] (setting [4]).

Consider `C[C@H]1[C@H](NC(=O)/C(=N\OC(C)(C)C(=O)O)c2csc(N)n2)C(=O)N1S(=O)(=O)O` [Aztreonam], for which the MIC is above 16 µg/mL in the experiment with K. pneumoniae IMT40061 (setting [2]), below 0.25 µg/mL in the experiment on K. pneumoniae 17349 (setting [3]) and below 0.25 µg/mL in experiment [1] (setting [4]).

Take `CO/N=C(\C(=O)N[C@@H]1C(=O)N2C(C(=O)O)=C(COC(C)=O)CS[C@H]12)c1csc(N)n1` [Cefotaxime]: the MIC in the experiment on K. pneumoniae IMT40061 (setting [2]) was above 8 µg/mL; with K. pneumoniae 17349 (setting [3]), below 0.0625 µg/mL; in experiment [1] (setting [4]), below 0.0625 µg/mL.

Take `CC(C)(O/N=C(\C(=O)N[C@@H]1C(=O)N2C(C(=O)[O-])=C(C[n+]3ccccc3)CS[C@H]12)c1csc(N)n1)C(=O)O` [Ceftazidime]: the results for the MIC (in the experiment with K. pneumoniae IMT40061 (setting [2]); in the experiment with K. pneumoniae 17349 (setting [3]); in experiment [1] (setting [4])) were above 32 µg/mL, below 0.25 µg/mL and below 0.25 µg/mL, respectively.

As for `CO/N=C(\C(=O)N[C@@H]1C(=O)N2C(C(=O)O)=C(COC(N)=O)CS[C@H]12)c1ccco1` [Cefuroxime], the figures for the MIC (in the experiment on K. pneumoniae IMT40061 (setting [2]); with K. pneumoniae 17349 (setting [3]); in experiment [1] (setting [4])) were above 32 µg/mL, 1 µg/mL (≈ 2.36 µM) and 2 µg/mL (≈ 4.71 µM), respectively.

Consider `O=C(O)c1cn(C2CC2)c2cc(N3CCNCC3)c(F)cc2c1=O` [Ciprofloxacin], for which the MIC in the experiment on K. pneumoniae IMT40061 (setting [2]) was above 4 µg/mL; against K. pneumoniae 17349 (Klebsiella pneumoniae, 17349), below 0.0312 µg/mL; in experiment [1] (setting [5]) it was 0.0625 µg/mL (≈ 0.189 µM).

Turning to `CC[C@H](C)CCCCC(=O)N[C@@H](CCN)C(=O)N[C@H](C(=O)N[C@@H](CCN)C(=O)N[C@H]1CCNC(=O)[C@H]([C@@H](C)O)NC(=O)[C@H](CCN)NC(=O)[C@H](CCN)NC(=O)[C@H](CC(C)C)NC(=O)[C@@H](CC(C)C)NC(=O)[C@H](CCN)NC1=O)[C@@H](C)O` [Colistin] (X1-[Dab]T[Dab][Dab][Dab][dL]L[Dab][Dab]T; lactam 4-C (inferred); N-terminus assumed), the MIC in the experiment on K. pneumoniae IMT40061 (setting [6]) is below 0.0625 µg/mL; in the experiment with K. pneumoniae 17349 (setting [6]), 0.25 µg/mL (≈ 0.214 µM); in experiment [1] (setting [6]), 0.25 µg/mL (≈ 0.214 µM).

For `C[C@H]1c2cccc(O)c2C(=O)C2=C(O)[C@]3(O)C(=O)C(C(N)=O)=C(O)[C@@H](N(C)C)[C@@H]3[C@@H](O)[C@@H]21` [Doxycycline], the figures for the MIC (with K. pneumoniae IMT40061 (setting [2]); with K. pneumoniae 17349 (setting [3]); in experiment [1] (setting [4])) were 4 µg/mL (≈ 9 µM), 0.5 µg/mL (≈ 1.13 µM) and 1 µg/mL (≈ 2.25 µM), respectively.

In the case of `CNC(C)C1CCC(N)C(OC2C(N)CC(N)C(OC3OCC(C)(O)C(NC)C3O)C2O)O1` (stereo not drawn) [Gentamicin], the MIC in the experiment on K. pneumoniae IMT40061 (setting [2]) is 0.5 µg/mL (≈ 1.05 µM); in the experiment on K. pneumoniae 17349 (setting [3]), 0.25 µg/mL (≈ 0.523 µM); in experiment [1] (setting [4]) it was below 0.125 µg/mL.

With `C[C@@H](O)[C@H]1C(=O)N2C(C(=O)O)=C(SCCN=CN)C[C@H]12` [Imipenem], the MIC with K. pneumoniae IMT40061 (Klebsiella pneumoniae, IMT40061) was below 0.125 µg/mL; against K. pneumoniae 17349 (Klebsiella pneumoniae, 17349) it was below 0.125 µg/mL; in experiment [1] (setting [5]) it was below 0.125 µg/mL.
